Key:
mouse cerebellum = assay: Mouse cerebellum apoptosis analysis (TUNEL of brain sections); assay type: in vivo, Balb/c mice; details: similar to that induced by T. brucei
Procedure: Murine African trypanosomiasis model. All animal-related procedures were carried out in strict accordance with the National Institutes of Health Guide for the Care and Use of Laboratory Animals and approved by the Morehouse School of Medicine's Animal Care and Use Committee. Male Balb/c mice (6-8 weeks of age) were maintained on a 12-hour-light/12-hour-dark cycle with access to food and water ad libitum. Mice were injected intra-peritoneally with parasitized blood (T. brucei L427) and groups of 10 were then sacrificed on days 0, 4, 6 and 8 post-infection (P.I.). Equal numbers of mice were sham-injected (with uninfected blood) as controls. All experiments were repeated twice at different times to ensure that the data were representative of each group, and took into account the potential individual-host variation in trypanosome-induced global gene expression. This murine trypanosomiasis model mimics the major clinical symptoms of HAT, with the infected mice developing fever, tremors, lethargy, weight loss, dyskinesia, convulsions, altered gait, and death by day 10 post injection (P.I.).
Mouse cerebellum and apoptosis analysis. […] The level of apoptosis visible in brain sections was determined semi-quantitatively as the mean numbers of TUNEL-positive (i.e. apoptotic) cells/cm^2 in 20 comparative fields of brain sections from infected and uninfected mice.

HBVEC = assay: TUNEL assay, dose response of apoptosis in HBVEC; assay type: cell-based, human
Procedure: RBVEC Cell line: Human Brain Macrovascular Endothelial Cells (HBVEC) were obtained from Biowhittaker (Walkersville, Md.). They were grown in media made as per the instructions in the Complete Medium Kit (Cell Systems Corporation, Kirkland, Wash.). Briefly, 500 ml of Complete Medium was added to 10 ml of Attachment Factor (Cell Systems Corporation, Kirkland, Wash.). The medium is a liquid medium containing 10% serum and CSC Growth factor. Cell stocks were maintained in T25 flasks at 37° C. in a 5% CO2 incubator, and were harvested and passed at about 60-80% confluence. Experiments were performed on cells plated and grown for 24 to 48 hours on collagen-coated coverslips in 35 mm tissue culture dishes.
Terminal deoxynucleotidyl transferase dUTP nick-end labeling (TUNEL) assay. […] Cells on cover slips were washed with PBS, and fixed for 30 minutes at RT with 4% paraformaldehyde, in PBS, pH 7.4. […] Total cell counts were determined by counterstaining fixed cultures with 20:g/ml of Hoechst 33258. […]
Dose Response. The effect of Trypanosome conditioned serum containing medium-induced apoptosis was determined in HBVEC. […] Total cells, and fluorescent cells were counted for each field examined (10 fields per plate minimum). The percentage of TUNEL-labeled cells was calculated as the number of FITC-stained cells divided by the total number.of cells. […]

AEGPEDKGLTKGGKGKGEKETKVQDEV (listed as Trypanosoma brucei) [ProEP2-1]
induction of apoptosis in cerebella of mice (mouse cerebellum): induce apoptosis | induction of apoptosis in HBVEC (HBVEC): induce apoptosis | dose dependence of TUNEL labeling of HBVEC (HBVEC; 24 hours): dose dependent
